Laboratory results: US12139488B2, “Pyrido[3,2-d]pyrimidine compounds uses thereof for treating a proliferative disease” (Universite de Montreal, priority 2021, dated 2024)
Where two headings read alike, the source gives them in different places.

Key:
Assay type in all cases: cell-based, human
Lovo cells (KRAS-G13D) = test: Proliferation inhibition (CellTiter-Glo), Lovo; settings: 3 days, read-out: Lovo Prolif. EC50
Experimental: (§1) All cancer cell lines (A375, A101D, A2058, RKO, HT29 SK-MEL 30, IPC298, HepG2, HCT-116, Lovo, SWV620, SW480, NCI-H358, NCI-H2122, Calu-6, NCIH2087, NCIH1755, NCIH1666 and Mewo) were obtained from ATCC and cultured in RPMI-1640 medium (Gibco) supplemented with 5% heat inactivated fetal bovine serum (FBS, Wisent) at 37° C. under 5% CO2. Cells were maintained in T175 flasks (Greiner). They were passaged by removing the culture medium, washing once in 10 mL of room temperature Phosphate Buffered Saline (PBS; Wisent) and incubating at 37° C. with 2 mL of 0.05% Trypsin (Thermo-Fisher). Trypsin was then inactivated by adding complete growth medium and the cells were then replated in a T175 culture dish at the appropriate dilution. All cell lines were routinely tested for mycoplasma contamination. Tissue type and mutational status of each cell line can be found in Table B.
(§2) CellTiter-Glo® viability analysis was conducted on cells plated in 100 μL of complete RPMI-1640 growth medium in 96-well flat-bottomed white opaque plates (Greiner or Croning) at a density indicated in Table E (for each CCL, number of cells plated per well of a 96-well plate to perform the CellTiter-Glo® cell viability assay). The cell density in cells/cm^2 would correspond to cell number divided by the area of one well of a 96-well plate (0.32 cm^2). […]
(§3) After 3 days of incubation, the growth media were removed by aspiration and 60 μL of diluted CellTiter-Glo® reagent (10 μL CellTiter-Glo® reagent+50 μL of PBS) was added to each well. […] Luminescence signals were then acquired on a Synergy Neo2 plate reader (Biotek).
(§4) The effect of each compound dilution on the proliferation of cancer cell lines was expressed in % inhibition and calculated as follows. […]
(§5) The ability of each compound to inhibit proliferation was expressed as a EC50 value obtained by plotting the effect values for each data point of a dilution series and fitting the obtained curves using a log(agonist) versus response-variable slope (four parameters) function using GraphPadPrism (V7.0) or Dotmatics Screening Ultra platform.

[1] = system: pERK in NCIH2087 cells (BRAF L597V; KRAS Q61K); test: Phospho-ERK inhibition (AlphaLISA), NCIH2087; settings: for NCIH2087 pERK % Ymin: NCIH2087, value in parentheses
Experimental: as §1
(§6) AlphaLISA® SureFire® Ultra™ p-ERK 1/2 (Thr202/Tyr204) analysis was conducted on cells plated in 100 μL of complete RPMI-1640 growth medium in 96-well flat-bottomed transparent dishes (Costar) at a density indicated in Table C. Cells were maintained overnight at 37° C. under 5% CO2 before treatment with compounds' dilution series for one hour. The cell density in cells/cm^2 corresponds to cell number divided by the area of one well of a 96-well plate ([…]).
(§7) In a dilution series 100 μL/well of test substance dilution prepared in complete RPMI-1640 growth media was added to the cells. The dilution series is selected so that ten concentrations cover a range from 10 μM to 0.33 nM. If necessary the initial concentration of 10 μM is increased to 100 μM or lowered to 1 μM (as in the case of A375 and H1666 cells, which are generally more sensitive to the compounds) and further dilution is carried out accordingly. The final concentration of DMSO in the assay is set at 0.5%.
(§8) After treatment, media was removed and cells were lysed in 50 μL of 1× AlphaScreen Ultra Lysis Buffer (Perkin Elmer). The AlphaLISA® SureFire® Ultra™ p-ERK 1/2 (Thr202/Tyr2O4) (PerkinElmer) reactions were performed with 5 μL of cell lysate according to the manufacturer's specifications in 384-well proxyplates (Perkin Elmer) followed by overnight incubation of the reactions at room temperature in a humidified chamber. After completion of the reactions, the signals were recorded on an EnVision plate reader (Perkin Elmer) using built in AlphaLISA® settings.
(§9) The effect of each compound dilution on the pERK signal was expressed in % inhibition and calculated as follows. An internal 100% inhibition control ([…] trametinib, cat #HY-10999; MedChem Express; CAS #871700-17-3) was included in each plate and used as a measure of pERK background. First, the value obtained for trametinib was subtracted from each data point. The average of DMSO (vehicle) controls (set as 0% inhibition) was established and used to calculate % inhibition: % inhibition=100*(1-((pERK signalcompound)/(pERK signalDMSO)))
as §5, with “pERK signal” for “proliferation”, “an IC50” for “a EC50”, “inhibition” for “effect”
(§10) When present, paradoxical pERK induction is inferred from the negative % inhibition values observed in the pERK IC50 curves of a compound.

[2] = system: pERK in SW480 cells (KRAS G12D); test: Phospho-ERK inhibition (AlphaLISA), SW480; settings: for SW480 pERK % Ymin: value in parentheses
Method in brief: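 Cells plated in RPMI-1640 with 5% FBS, kept overnight at 37° C, then treated 1 h with ten-point dilutions (top usually 10 μM; 0.5% DMSO). Lysate p-ERK1/2 (Thr202/Tyr204) read by AlphaLISA SureFire Ultra. % inhibition set against DMSO after subtracting the trametinib background; IC50 from four-parameter fit.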

[3] = system: pERK in IPC298 cells (NRAS-Q61L); test: Phospho-ERK inhibition (AlphaLISA), IPC298; settings: for IPC298 pERK % Ymin: IPC298, value in parentheses
Experimental: as §1, §6, §7, §8, §9
as §5, with “pERK signal” for “proliferation”, “an IC50” for “a EC50”, “inhibition” for “effect”
as §10

[4] = system: pERK in NCIH1755 cells (BRAF G469A); test: Phospho-ERK inhibition (AlphaLISA), NCIH1755; settings: for NCIH1755 pERK % Ymin: NCIH1755, value in parentheses
Experimental: as §1, §6, §7, §8, §9
as §5, with “pERK signal” for “proliferation”, “an IC50” for “a EC50”, “inhibition” for “effect”
as §10

HT29 cells (BRAF V600E) = test: Proliferation inhibition (CellTiter-Glo), HT29; settings: HT-29, 3 days, read-out: HT-29 Prolif. EC50
Experimental: as §1, §2, §3, §4, §5

EC50 (Lovo cells (KRAS-G13D); Homo sapiens, 72 h)	IC50 ([1]; Homo sapiens, NCI-H2087)	IC50 ([2]; Homo sapiens, SW480, Table D)	IC50 ([3]; Homo sapiens, IPC-298)	IC50 ([4]; Homo sapiens, NCI-H1755)	EC50 (HT29 cells (BRAF V600E); Homo sapiens, 72 h)	EC50 (Lovo cells (KRAS-G13D))	IC50 ([1]; NCIH2087)	IC50 ([2]; SW480, Table D)	IC50 ([2]; SW480 cells, class symbol before the bracket)	IC50 ([3]; IPC298)	IC50 ([4]; NCIH1755)	EC50 (HT29 cells (BRAF V600E))	IC50 ([2]; SW480 cells, class symbol)	SMILES	NCIH2087 pERK % Ymin [1]	SW480 pERK % Ymin ([2]; SW480, Table D)	IPC298 pERK % Ymin [3]	NCIH1755 pERK % Ymin [4]	SW480 pERK Ymin % ([2]; SW480 cells, Ymin in brackets)
< 30 nM	< 30 nM	30 to 300 nM	30 to 300 nM	30 to 300 nM	< 30 nM	–	–	–	–	–	–	–	–	Cc1ccc2c(Nc3cccc(Cl)c3F)nccc2c1NC(=O)c1csc2c(N)ncnc12 [Belvarafenib, reference compound]	6%	−100%	−63%	−79%	–
–	–	–	–	–	–	< 30 nM	< 30 nM	30 to 300 nM	< 500 nM	30 to 300 nM	< 30 nM	< 30 nM	–	Nc1cccc2c1ncn2-c1ccc2ncnc(Nc3c(F)ccc(NS(=O)(=O)c4cccc(Cl)c4Cl)c3F)c2n1 [Example 99]	15%	−7%	−2%	−8%	−0.3%
–	–	–	–	–	–	< 30 nM	< 30 nM	30 to 300 nM	–	30 to 300 nM	30 to 300 nM	< 30 nM	< 500 nM	CC1(O)CCN(c2cccc3c2ncn3-c2ccc3ncnc(Nc4c(F)ccc(NS(=O)(=O)c5cccc(Cl)c5Cl)c4F)c3n2)CC1 [Example 524]	3%	0%	13%	−13%	–
